# According to ChEMBL document CHEMBL5150023, “The Pursuit of Enzyme Activation: A Snapshot of the Gold Rush” (J Med Chem, 2022):
# How the values were obtained:
# [1] = target: T1, NAD-dependent protein deacetylase sirtuin-1 (Homo sapiens) (UniProt Q96EB6); assay: Activation of human N-terminal hexa-histidine tagged SIRT1 expressed in Escherichia coli BL21 (DE3) using peptide substrate by fluorescence polarization assay relative to control; details: filed as activator
# T1 sequence (whole entry): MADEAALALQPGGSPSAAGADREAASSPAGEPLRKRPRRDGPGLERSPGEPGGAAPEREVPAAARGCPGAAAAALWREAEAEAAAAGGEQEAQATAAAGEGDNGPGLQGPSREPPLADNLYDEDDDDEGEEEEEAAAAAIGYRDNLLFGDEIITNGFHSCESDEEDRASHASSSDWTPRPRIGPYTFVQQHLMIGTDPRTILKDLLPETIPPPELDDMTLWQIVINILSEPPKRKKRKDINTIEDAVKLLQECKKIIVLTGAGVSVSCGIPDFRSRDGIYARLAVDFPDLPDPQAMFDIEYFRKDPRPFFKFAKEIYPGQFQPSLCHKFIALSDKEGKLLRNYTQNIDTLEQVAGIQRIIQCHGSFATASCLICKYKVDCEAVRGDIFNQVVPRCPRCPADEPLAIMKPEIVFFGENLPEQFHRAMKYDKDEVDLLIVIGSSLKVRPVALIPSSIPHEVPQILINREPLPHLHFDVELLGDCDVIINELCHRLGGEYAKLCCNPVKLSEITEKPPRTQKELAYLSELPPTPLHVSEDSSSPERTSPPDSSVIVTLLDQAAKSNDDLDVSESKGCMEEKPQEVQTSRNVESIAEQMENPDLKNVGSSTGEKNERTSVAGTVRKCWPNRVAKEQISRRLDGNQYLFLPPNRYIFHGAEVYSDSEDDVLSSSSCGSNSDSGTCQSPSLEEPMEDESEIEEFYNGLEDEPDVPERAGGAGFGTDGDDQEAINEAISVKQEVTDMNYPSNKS
# [2] = organism: Homo sapiens; assay: Activation of human G6PD canton (R459L) mutant assessed as restoration of activity using G6P as substrate incubated for 3 hrs d by substrate addition and mesured after 2.5 mins by diaphorase-coupled enzyme assay relative to wild type G6PD activity percentage
# [3] = Activation of human G6PD canton (R459L) mutant assessed as restoration of activity using G6P as substrate incubated for 3 hrs d by substrate addition and mesured after 2.5 mins by diaphorase-coupled enzyme assay
# [4] = target: T1, NAD-dependent protein deacetylase sirtuin-1 (Homo sapiens); assay: Activation of human N-terminal hexa-histidine tagged SIRT1 expressed in Escherichia coli BL21 (DE3) using peptide substrate by fluorescence polarization assay; details: filed as activator
# [5] = target: T2, Serine/threonine-protein kinase ULK1 (Homo sapiens) (UniProt O75385); assay: Agonist activity at ULK1 (unknown origin) expressed in HEK293T cells at 100 nM incubated for 60 mins by ADP-Glo luminescence assay relative to control; format: cell-based; details: filed as agonist
# T2 sequence (whole entry): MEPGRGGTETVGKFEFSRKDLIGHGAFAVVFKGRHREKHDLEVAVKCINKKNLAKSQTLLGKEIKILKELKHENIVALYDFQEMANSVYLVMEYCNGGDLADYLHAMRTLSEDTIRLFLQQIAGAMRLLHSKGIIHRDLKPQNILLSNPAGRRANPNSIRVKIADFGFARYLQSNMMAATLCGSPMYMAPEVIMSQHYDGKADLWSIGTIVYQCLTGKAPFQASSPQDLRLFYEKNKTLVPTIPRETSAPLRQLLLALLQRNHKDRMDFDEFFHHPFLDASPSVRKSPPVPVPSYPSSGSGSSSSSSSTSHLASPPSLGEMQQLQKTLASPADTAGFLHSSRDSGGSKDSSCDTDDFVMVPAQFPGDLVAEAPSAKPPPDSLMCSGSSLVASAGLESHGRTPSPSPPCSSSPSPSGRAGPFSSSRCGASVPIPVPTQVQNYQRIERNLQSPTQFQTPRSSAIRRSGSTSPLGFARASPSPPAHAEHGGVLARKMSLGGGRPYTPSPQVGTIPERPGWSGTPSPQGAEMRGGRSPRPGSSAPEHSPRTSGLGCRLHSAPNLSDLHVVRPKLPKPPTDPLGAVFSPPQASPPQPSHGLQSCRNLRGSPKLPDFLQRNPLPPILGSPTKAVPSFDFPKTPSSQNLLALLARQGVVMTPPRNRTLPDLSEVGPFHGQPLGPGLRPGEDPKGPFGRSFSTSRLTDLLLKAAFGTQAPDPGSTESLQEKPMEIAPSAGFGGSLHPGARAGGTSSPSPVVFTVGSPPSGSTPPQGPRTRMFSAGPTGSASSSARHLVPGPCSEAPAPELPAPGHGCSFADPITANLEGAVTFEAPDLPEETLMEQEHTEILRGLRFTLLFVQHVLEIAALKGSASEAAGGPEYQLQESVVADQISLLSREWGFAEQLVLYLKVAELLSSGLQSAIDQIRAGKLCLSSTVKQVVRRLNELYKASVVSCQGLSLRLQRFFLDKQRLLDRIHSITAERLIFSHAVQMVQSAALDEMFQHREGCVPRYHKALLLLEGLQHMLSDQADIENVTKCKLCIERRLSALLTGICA
structure (smiles),measurement,setting,value
Oc1ccc(/C=C/c2cc(O)cc(O)c2)cc1,Emax,[1],201%
c1ccc2c(CCNCCSSCCNCCc3c[nH]c4ccccc34)c[nH]c2c1,Activity,[2],30%
same,EC50,[3],3000 nM
O=C(Nc1ccccc1-c1cn2c(CN3CCNCC3)csc2n1)c1cnc2ccccc2n1,Emax,[1],781%
same,EC1.5,[4],0.16 µM
CC(C)CN(CC(=O)N1CCN(CC(OCc2ccc3ccccc3c2)c2ccc(Cl)cc2Cl)CC1)CC(C)C (stereo unspecified),Activity,[5],243%
